Where “and” joins values, the source holds several entries; their conditions need not be identical. Equal entries are not always repeated. One block for each compound: values may come before it.
Tests used:
barnyard grass (Ec) [1] = experiment: Test Example 2: herbicidal effects by upland soil treatment; assay type: in vivo; set-up: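 0-5 growth inhibition grade; 5 = over 90%; 4 = 70-90%; 3 = 50-70%; 2 = 30-50%; 1 = 10-30%; 0 = under 10%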; details: dose 100 g active ingredient per 10 ares, examined on the 21st day after treatment; for herbicidal effects, Ec (barnyard grass): standards of Table 44
Outline: (§1)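 Pre-emergence test: barnyard grass and green foxtail sown in upland soil, then soil surface sprayed with wettable-powder formulation at 100 g active ingredient per 10 ares (100 l per 10 ares). Grown in greenhouse; herbicidal effect scored on a rating scale 21 days after treatment.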

barnyard grass (Ec) [2] = experiment: Test Example 3: herbicidal effects by foliage treatment in upland field; assay type: in vivo; set-up: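 0-5 growth inhibition grade; 5 = over 90%; 4 = 70-90%; 3 = 50-70%; 2 = 30-50%; 1 = 10-30%; 0 = under 10%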; details: dose 100 g active ingredient per 10 ares, examined on the 14th day after treatment
Outline: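 Barnyard grass and green foxtail were grown in upland soil for 2 weeks in a greenhouse. A water-diluted wettable powder was sprayed over the foliage at 100 l per 10 ares, giving 100 g active ingredient per 10 ares. Herbicidal effect was scored on day 14 after treatment.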

green foxtail (Se) = experiment: Test Example 2: herbicidal effects by upland soil treatment; assay type: in vivo; details: dose 100 g active ingredient per 10 ares, examined on the 21st day after treatment, standards of Table 44;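 further: 0-5 growth inhibition grade; 5 = over 90%; 4 = 70-90%; 3 = 50-70%; 2 = 30-50%; 1 = 10-30%; 0 = under 10%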
Outline: as §1

barnyard grass (Eo) [3] = experiment: Test Example 4: selectivity for a crop plant by flooded paddy field treatment; assay type: in vivo; set-up: scale not given here; details: for Eo (herbicidal effect index): barnyard grass, dose 25 gai/10a, 21st day after treatment, index per Table 44
Outline: (§2)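 Water-surface application in a greenhouse pot test: 25 g active ingredient per 10 ares, given as a diluted wettable powder one day after flooding, with visual rating of herbicidal effect three weeks post-treatment.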

monochoria (Mo) [4] = experiment: as above; assay type: in vivo; set-up: scale not given here; details: for Mo (herbicidal effect index): monochoria, dose 25 gai/10a, 21st day after treatment, index per Table 44
Outline: as §2

rice (Or) = experiment: as above; assay type: in vivo; set-up: scale not given here; details: rice transplanted at second leaf stage; for Or (herbicidal effect index on crop): dose 25 gai/10a, 21st day after treatment, index per Table 44
Outline: as §2

barnyard grass (Eo) [5] = experiment: Test Example 1: herbicidal effects by flooded paddy field treatment; assay type: in vivo; set-up: herbicidal effects, Eo (barnyard grass):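 0-5 growth inhibition grade; 5 = over 90%; 4 = 70-90%; 3 = 50-70%; 2 = 30-50%; 1 = 10-30%; 0 = under 10%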; details: for Herbicidal effect index, Eo: dose 100 gai/10a, examined on 21st day after treatment, index 0-5 per Table 44; for herbicidal effects, Eo (barnyard grass): dose 100 g active ingredient per 10 ares, examined on the 21st day after treatment, standards of Table 44;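 on Herbicidal effect index, Eo: 0-5 growth inhibition grade; 5 = over 90%; 4 = 70-90%; 3 = 50-70%; 2 = 30-50%; 1 = 10-30%; 0 = under 10%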
Outline: (§3)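 Dose: 100 g active ingredient per 10 ares as a diluted wettable powder dripped onto 3 cm floodwater, one day after sowing in puddled paddy soil. Scored by a standard rating scale 21 days later following greenhouse growth.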

monochoria (Mo) [6] = experiment: as above; assay type: in vivo; set-up: herbicidal effects, Mo (monochoria):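 0-5 growth inhibition grade; 5 = over 90%; 4 = 70-90%; 3 = 50-70%; 2 = 30-50%; 1 = 10-30%; 0 = under 10%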; details: for Herbicidal effect index, Mo: dose 100 gai/10a, examined on 21st day after treatment, index 0-5 per Table 44; for herbicidal effects, Mo (monochoria): dose 100 g active ingredient per 10 ares, examined on the 21st day after treatment, standards of Table 44
Outline: as §3

corn (Ze) = experiment: Test Example 5: selectivity for a crop plant by soil treatment in upland field; assay type: in vivo; set-up: scale not given here; details: dose 25 gai/10a, 21st day after treatment, index per Table 44
Outline: (§4)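 Upland soil in pots was sown with barnyard grass, green foxtail, soybean, wheat and corn. A diluted wettable powder was sprayed onto the soil surface (100 l per 10 ares) at 25 g active ingredient per 10 ares. Herbicidal effect was scored against a rating standard 21 days after treatment, with plants grown in a greenhouse.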

barnyard grass (Ec) [7] = experiment: as above; assay type: in vivo; set-up: scale not given here; details: dose 25 gai/10a, 21st day after treatment, index per Table 44
Outline: as §4

wheat (Tr) = experiment: as above; assay type: in vivo; set-up: scale not given here; details: dose 25 gai/10a, 21st day after treatment, index per Table 44
Outline: as §4

soybean (G1) = experiment: as above; assay type: in vivo; set-up: scale not given here; details: dose 25 gai/10a, 21st day after treatment, index per Table 44
Outline: as §4

[8] = dose 25 g active ingredient per 10 ares, examined on the 21st day after treatment
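Wherever Herbicidal effect index, Mo is given: 0-5 growth inhibition grade; 5 = over 90%; 4 = 70-90%; 3 = 50-70%; 2 = 30-50%; 1 = 10-30%; 0 = under 10%.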

melting point: 168 to 170 °C
SMILES: CC(C(=O)N(C)C(c1cncnc1C(=O)O)C(C)C)c1ccc(Cl)cc1 (single isomer, unassigned) [Compound 1-718, 5-(1-{[2-(4-chlorophenyl)-propionyl]methylamino}-2-methylpropyl)-pyrimidine-4-carboxylic acid]

melting point: 106 to 109 °C
SMILES: CC(C)C(c1cncnc1C(F)(F)F)N(C)C(=O)Cc1ccccc1 (stereo not drawn) [Compound 1-8, N-methyl-N-[2-methyl-1-(4-trifluoromethylpyrimidin-5-yl)propyl]phenylacetamide]
herbicidal effects, Ec (barnyard grass) (barnyard grass (Ec) [1]): 5
Ec (herbicidal effects, index) (barnyard grass (Ec) [2]): 5
herbicidal effects, Se (green foxtail) (green foxtail (Se)): 5
Herbicidal effect index, Eo (barnyard grass (Eo) [5]): 5
Herbicidal effect index, Mo (monochoria (Mo) [6]): 5

melting point: 142 to 145 °C
SMILES: COCN(C(=O)Cc1ccc(Cl)cc1)C(c1cncnc1C(F)(F)F)C(C)C (stereo not drawn) [Compound 1-105, N-methoxymethyl-N-[2-methyl-1-(4-trifluoromethylpyrimidin-5-yl)propyl]-4-chlorophenylacetamide]
herbicidal effects, Ec (barnyard grass) (barnyard grass (Ec) [1]): 5
herbicidal effects, Se (green foxtail) (green foxtail (Se)): 5
Herbicidal effect index, Eo (barnyard grass (Eo) [5]): 5
Herbicidal effect index, Mo (monochoria (Mo) [6]): 5

melting point: 104 to 105 °C
SMILES: CC(C)C(c1cncnc1C(F)(F)F)N(C)C(=O)N(C)c1ccccc1 (stereo not drawn) [Compound 1-424, 1,3-dimethyl-1-[2-methyl-1-(4-trifluoromethyl-pyrimidin-5-yl)-propyl]-3-phenylurea]
Ec (herbicidal effects, index) (barnyard grass (Ec) [1]): 5
Ec (herbicidal effects, index) (barnyard grass (Ec) [2]): 4
herbicidal effects, Eo (barnyard grass) (barnyard grass (Eo) [5]): 5
herbicidal effects, Mo (monochoria) (monochoria (Mo) [6]): 5

melting point: 95 to 98 °C and 95 to 96 °C
SMILES: CC(C)C(c1cncnc1C(F)(F)F)N(C)C(=O)N(C)Cc1ccc(Cl)cc1 (stereo not drawn) [Compound 1-532, 1-(4-chlorobenzyl)-1,3-dimethyl-3-[2-methyl-1-(4-trifluoromethyl-pyrimidin-5-yl)-propyl]-urea]
Ec (herbicidal effects, index) (barnyard grass (Ec) [1]): 5
Ec (herbicidal effects, index) (barnyard grass (Ec) [2]): 5
Eo (herbicidal effect index) (barnyard grass (Eo) [3]): 5
Mo (herbicidal effect index) (monochoria (Mo) [4]): 5
Or (herbicidal effect index on crop) (rice (Or)): 1
herbicidal effects, Eo (barnyard grass) (barnyard grass (Eo) [5]): 5
herbicidal effects, Mo (monochoria) (monochoria (Mo) [6]): 5

Further lines, the compound ahead of its results:

SMILES: CCN(C(=O)Cc1ccc(C#N)cc1)C(c1cncnc1C(F)(F)F)C(C)C (racemic) [Compound 1-98]
herbicidal effects, Ec (barnyard grass) (barnyard grass (Ec) [1]): 5
Ec (herbicidal effects, index) (barnyard grass (Ec) [2]): 4
herbicidal effects, Se (green foxtail) (green foxtail (Se)): 5
Eo (herbicidal effects, index) (barnyard grass (Eo) [3]; [8]): 5
Mo (herbicidal effects, index) (monochoria (Mo) [4]; [8]): 5
Or (effect on crop plant rice, index) (rice (Or); [8]): 1
Herbicidal effect index, Eo (barnyard grass (Eo) [5]): 5
Herbicidal effect index, Mo (monochoria (Mo) [6]): 5
Ze (herbicidal effect index on crop) (corn (Ze)): 1
Ec (herbicidal effect index) (barnyard grass (Ec) [7]): 4
Tr (herbicidal effect index on crop) (wheat (Tr)): 1
Gl (herbicidal effect index on crop) (soybean (G1)): 0

SMILES: CC(C)C(c1cncnc1C(F)(F)F)N(C)C(=S)Cc1ccccc1 (stereo not drawn) [Compound 1-142, N-methyl-N-[2-methyl-1-(4-trifluoromethylpyrimidin-5-yl)propyl]phenylthioacetamide]
herbicidal effects, Ec (barnyard grass) (barnyard grass (Ec) [1]): 5
Ec (herbicidal effects, index) (barnyard grass (Ec) [2]): 4
herbicidal effects, Se (green foxtail) (green foxtail (Se)): 5
herbicidal effects, Eo (barnyard grass) (barnyard grass (Eo) [5]): 5
melting point: 93 to 94 °C
herbicidal effects, Mo (monochoria) (monochoria (Mo) [6]): 5

SMILES: CC(C)C(c1cncnc1C=NO)N(C)C(=O)Cc1ccccc1 (stereo not drawn) [Compound 1-500, N-[1-(4-hydroxyiminomethylpyrimidin-5-yl)-2-methylpropyl]-N-methylphenylacetamide]
herbicidal effects, Eo (barnyard grass) (barnyard grass (Eo) [5]): 5
melting point: 171 to 172 °C
herbicidal effects, Mo (monochoria) (monochoria (Mo) [6]): 5

SMILES: CC(C)C(c1cncnc1C#N)N(C)C(=O)Cc1ccccc1 (stereo not drawn) [Compound 1-504, N-[1-(4-cyanopyrimidin-5-yl)-2-methylpropyl]-N-methylphenylacetamide]
Ec (herbicidal effects, index) (barnyard grass (Ec) [1]): 5
Ec (herbicidal effects, index) (barnyard grass (Ec) [2]): 5
Eo (herbicidal effect index) (barnyard grass (Eo) [3]): 5
Mo (herbicidal effect index) (monochoria (Mo) [4]): 5
Or (herbicidal effect index on crop) (rice (Or)): 1
herbicidal effects, Eo (barnyard grass) (barnyard grass (Eo) [5]): 5
melting point: 80 to 81 °C
herbicidal effects, Mo (monochoria) (monochoria (Mo) [6]): 5

SMILES: CC(C)C(c1cncnc1C(F)(F)F)N(C)C(=O)Cc1ccccn1 (stereo not drawn) [Compound 2-3, N-methyl-N-[2-methyl-1-(4-trifluoromethylpyrimidin-5-yl)propyl]-2-pyridylacetamide]
herbicidal effects, Eo (barnyard grass) (barnyard grass (Eo) [5]): 5
melting point: 99 to 100 °C
herbicidal effects, Mo (monochoria) (monochoria (Mo) [6]): 5
